# Read-outs that look alike come from different tables or passages of the source.
# Key:
# Format in all cases: cell-based
# HIV-1 (IIIB) = assay: Antiviral assay in MT-4 cells; conditions: Human immunodeficiency virus 1, MT4, 120 h; replication of HIV-1 (IIIB) in MT-4 cells, 5 days incubation, Cell Titer Glo
# Description: Example 24: HIV MT-4 Antiviral and Cytotoxicity Assay
# Antiviral Assay in MT-4 Cells
# Compounds were tested in a high-throughput 384-well assay format for their ability to inhibit the replication of HIV-1 (IIIB) in MT-4 cells. Compounds were serially diluted (1:3) in DMSO on 384-well polypropylene plates and further diluted 200-fold into complete RPMI media (10% FBS, 1% P/S) using the Biotek Micro Flow and Labcyte ECHO acoustic dispenser. Each plate contained up to 8 test compounds, with negative (No Drug Control) and 5 μM AZT positive controls. MT-4 cells were pre-infected with 10 μL of either RPMI (mock-infected) or a fresh 1:250 dilution of HIV-1 IIIB concentrated virus stock. Infected and uninfected MT-4 cells were further diluted in complete RPMI media and added to each plate using a Micro Flow dispenser. After 5 days incubation in a humidified and temperature controlled incubator (37° C.), Cell Titer Glo (Promega) was added to the assay plates and chemiluminescence read using an Envision plate-reader. EC50 values were defined as the compound concentration that causes a 50% decrease in luminescence signal, and were calculated using a sigmoidal dose-response model to generate curve fits.
# pLai RLuc reporter virus = assay: HIV MT-4 serum shift antiviral reporter assay; conditions: Human immunodeficiency virus 1, MT4, 72 h
# Description: Example 25: HIV MT-4 Serum Shift Antiviral Reporter Assay
# To quantify the amount of protein binding to human serum, compounds were serially diluted (1:3) in DMSO and acoustically transferred onto 384-well assay plates via a Labcyte ECHO robot. Each plate contained up to 8 test compounds, including negative and positive controls, (DMSO, 5 μM AZT respectively). Assay plates were prepared in duplicate, and tested in either CCM (cell culture media) or HS/CCM (human serum/cell culture media). MT-4 cells were first pre-infected with pLai RLuc reporter virus for 2 h at 37° C., then further diluted in either CCM (RPMI media, 10% FBS, 1% P/S) or HS/CCM (RPMI media, 10% FBS, 50% HS, 1% P/S), and subsequently added to each plate using a Biotek Micro Flow dispenser. After a 72-h incubation in a humidified and temperature controlled incubator (37° C.), Renilla Glo (Promega) was added to all assay plates and chemiluminescence read using an Envision plate-reader. EC50 values were defined as the compound concentration that causes a 50% decrease in luminescence signal, and were calculated using a sigmoidal dose-response model to generate curve fits. To determine the amount of protein binding, EC50 fold shifts (or EC50 shifts) were calculated by dividing EC50 (HS/CCM)/EC50 (CCM).
# [1] = Cytotoxicity assay in MT-4 cells; conditions: human; uninfected MT-4 cells, 5 days incubation, Cell Titer Glo
# Description: Cytotoxicity Assay in MT-4 Cells Assays were performed as above except uninfected MT-4 cells were added to each well containing test compound. In addition, 10 μM puromycin was added to the last column of each assay plate to assess a base level of cytotoxicity.
# [2] = read-out: Antiviral Serum Shift RLuc 50% HS
# [3] = read-out: Antiviral Serum Shift RLuc CCM
SMILES,EC50 (HIV-1 (IIIB)) [nM],EC50 (pLai RLuc reporter virus; [2]) [nM],EC50 (pLai RLuc reporter virus; [3]) [nM],CC50 at 5 days [1] [nM]
"CO[C@H]1C[C@]23CCCCN(C2)C(=O)c2c(O)c(=O)c(C(=O)NCc4c(F)cc(F)cc4F)c1n23 (single isomer, unassigned) [Compound 12-2]",3.26,98.4,1.14,11100
"O=C(NCc1ccc(F)c(Cl)c1F)c1c2n3c(c(O)c1=O)C(=O)N1CCCC[C@@]3(C[C@H]2O)C1 (single isomer, unassigned) [Compound 14-1]",1.1,26,0.22,2310
"O=C(NCc1ccc(F)c(Cl)c1F)c1c2n3c(c(O)c1=O)C(=O)N1CCCC[C@@]3(C[C@@H]2O)C1 (single isomer, unassigned) [Compound 14-2]",0.73,11,0.41,2110
"C[C@]1(O)C[C@@]23CCCCN(C2)C(=O)c2c(O)c(=O)c(C(=O)NCc4c(F)cc(F)cc4F)c1n23 (single isomer, unassigned) [Compound 15]",1.2,51,0.29,3730
"C[C@H]1C=CC[C@]23C[C@@H](O)c4c(C(=O)NCc5c(F)cc(F)cc5F)c(=O)c(O)c(n42)C(=O)N1C3 (single isomer, unassigned) [Compound 21-1]",1.04,27,0.26,4840
"C[C@H]1C=CC[C@]23C[C@H](O)c4c(C(=O)NCc5c(F)cc(F)cc5F)c(=O)c(O)c(n42)C(=O)N1C3 (single isomer, unassigned) [Compound 21-2]",0.8,12,0.27,5370
"O=C(NCc1c(F)cc(F)cc1F)c1c2n3c(c(O)c1=O)C(=O)N1CCCC[C@@]3(CC2)C1 [Compound 1, (6aR)-11-hydroxy-1,10-dioxo-N-(2,4,6-trifluorobenzyl)-1,3,4,5,6,7,8,10-octahydro-2,6a-methano[1,4]diazonino[9,1,2-cd]indolizine-9-carboxamide]",1.35,8.71,0.299,4300
"O=C(NCc1c(F)cc(F)cc1F)c1c2n3c(c(O)c1=O)C(=O)N1CCCC[C@]3(CC2)C1 [Compound 2, (6aS)-11-hydroxy-1,10-dioxo-N-(2,4,6-trifluorobenzyl)-1,3,4,5,6,7,8,10-octahydro-2,6a-methano[1,4]diazonino[9,1,2-cd]indolizine-9-carboxamide]",2.26,20.8,0.351,6160
"O=C(NCc1ccc(F)cc1F)c1c2n3c(c(O)c1=O)C(=O)N1CCCC[C@@]3(CC2)C1 [Compound 3, (6aR)—N-(2,4-difluorobenzyl)-11-hydroxy-1,10-dioxo-1,3,4,5,6,7,8,10-octahydro-2,6a-methano[1,4]diazonino[9,1,2-cd]indolizine-9-carboxamide]",1.78,3.11,0.175,4940
"O=C(NCc1ccc(F)cc1F)c1c2n3c(c(O)c1=O)C(=O)N1CCCC[C@]3(CC2)C1 [Compound 4, (6aS)—N-(2,4-difluorobenzyl)-11-hydroxy-1,10-dioxo-1,3,4,5,6,7,8,10-octahydro-2,6a-methano[1,4]diazonino[9,1,2-cd]indolizine-9-carboxamide]",3.09,32.3,0.72,5140
"O=C(NCc1cccc(Cl)c1F)c1c2n3c(c(O)c1=O)C(=O)N1CCCC[C@@]3(CC2)C1 [Compound 5, (6aR)—N-(3-chloro-2-fluorobenzyl)-11-hydroxy-1,10-dioxo-1,3,4,5,6,7,8,10-octahydro-2,6a-methano[1,4]diazonino[9,1,2-cd]indolizine-9-carboxamide]",2.24,6.04,0.278,4040
"O=C1c2c(O)c(=O)c(-c3nnc(Cc4c(F)cc(F)cc4F)s3)c3n2C2(CCCCN1C2)CC3 (stereo not shown) [Compound 7, 11-hydroxy-9-(5-(2,4,6-trifluorobenzyl)-1,3,4-thiadiazol-2-yl)-3,4,5,6,7,8-hexahydro-2,6a-methano[1,4]diazonino[9,1,2-cd]indolizine-1,10-dione]",3.8,60.8,0.997,3800
"C[C@@]1(O)C[C@]23CCCCN(C2)C(=O)c2c(O)c(=O)c(C(=O)NCc4c(F)cc(F)cc4F)c1n23 [Compound 17, (6aR,8R)-8,11-dihydroxy-8-methyl-1,10-dioxo-N-(2,4,6-trifluorobenzyl)-1,3,4,5,6,7,8,10-octahydro-2,6a-methano[1,4]diazonino[9,1,2-cd]indolizine-9-carboxamide]",1.2,1.1,0.13,3170
"O=C(NCc1c(F)cc(F)cc1F)c1c2n3c(c(O)c1=O)C(=O)N1CCCC[C@@]3(CC2CO)C1 (stereo partly drawn) [Compound 18, (6aR)-11-hydroxy-8-(hydroxymethyl)-1,10-dioxo-N-(2,4,6-trifluorobenzyl)-1,3,4,5,6,7,8,10-octahydro-2,6a-methano[1,4]diazonino[9,1,2-cd]indolizine-9-carboxamide]",10.7,0.97,0.87,25200
"C[C@H]1C=CC[C@]23CCc4c(C(=O)NCc5c(F)cc(F)cc5F)c(=O)c(O)c(n42)C(=O)N1C3 [Compound 20, (3S,6aS)-11-hydroxy-3-methyl-1,10-dioxo-N-(2,4,6-trifluorobenzyl)-1,3,6,7,8,10-hexahydro-2,6a-methano[1,4]diazonino[9,1,2-cd]indolizine-9-carboxamide]",0.83,16,0.31,3340
"CO[C@H]1CC[C@H](C)N2C[C@]13CCc1c(C(=O)NCc4c(F)cc(F)cc4F)c(=O)c(O)c(n13)C2=O [Compound 23-2, (3S,6S,6aR)-11-hydroxy-6-methoxy-3-methyl-1,10-dioxo-N-(2,4,6-trifluorobenzyl)-1,3,4,5,6,7,8,10-octahydro-2,6a-methano[1,4]diazonino[9,1,2-cd]indolizine-9-carboxamide]",2.5,21,0.46,14100

# Reference: patent US12122776B2, “Tetracyclic compounds and uses thereof” (Gilead Sciences, Inc., priority 2020, dated 2024)
